Assay results published in US11319289B2, “5-hydroxy pyridine-based compound for use as P2X1 and P2X3 receptor antagonist and pharmaceutical composition comprising same” (GWANGJU INSTITUTE OF SCIENCE AND TECHNOLOGY, priority 2017, dated 2022).

Key:
[1] = biological target: T1, human P2X3 receptor (hP2X3) (Homo sapiens, UniProt P56373); experiment: Two-electrode voltage clamp assay, recombinant hP2X3 receptor in Xenopus oocytes; assay type: cell-based; settings: for IC50: 2 μM ATP-evoked current, Xenopus oocytes, mean±SEM n≥3 (footnote d)
T1 construct: expressed in transfected cells; host or cells: Xenopus oocytes (cRNA microinjection)
T1 sequence (P56373 1-397): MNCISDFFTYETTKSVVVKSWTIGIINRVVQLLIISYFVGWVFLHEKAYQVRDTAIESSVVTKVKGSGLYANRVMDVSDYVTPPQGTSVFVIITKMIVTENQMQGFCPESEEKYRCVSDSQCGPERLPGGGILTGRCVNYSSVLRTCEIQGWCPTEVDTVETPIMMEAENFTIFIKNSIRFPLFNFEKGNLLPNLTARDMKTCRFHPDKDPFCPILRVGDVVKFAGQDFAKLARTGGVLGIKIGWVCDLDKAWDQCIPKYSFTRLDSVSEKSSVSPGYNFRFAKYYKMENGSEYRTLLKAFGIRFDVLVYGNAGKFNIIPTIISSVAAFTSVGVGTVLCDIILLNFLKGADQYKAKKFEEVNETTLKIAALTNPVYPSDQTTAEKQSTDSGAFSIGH
Procedure: 1-1. Two-Electrode Voltage Clamp Assay for Recombinant mP2X1 and hP2X3 Receptors
Xenopus oocytes were isolated and incubated with 270 U/mg of collagenase at 23 to 24° C. for 1.5 hours. Defolliculated oocytes were kept in Barth's solution at 18° C. After 1 day, the defolliculated oocytes were each microinjected cytosolically with mP2X1 and human P2X3 receptor cRNA ([…], 1 μg/mL), incubated for 24 hours at 18° C. in Barth's solution. The cRNA-injected oocytes were kept for 12 days at 4° C. ATP-activated membrane currents (Vh=−70 mV) were recorded from the cRNA-injected oocytes using the two-electrode voltage clamp technique (Axoclamp 2B amplifier). Voltage recording ([…] tip resistance) and current-recording microelectrodes (5 MΩ tip resistance) were filled with 3.0 M KCl. Oocytes were placed in an electrophysiological chamber continuously superfused with Ringer's solution (5 mL/min, at 18° C.) containing 110 mM NaCl, 2.5 mM KCl, 5 mM HEPES and 1.8 mM BaCl2, with pH adjusted to 7.5. To induce an evoked current, 2 μM ATP was superfused for 60 to 120 seconds and then washed for 20 min. For data analysis, the ATP-evoked current was normalized at pH 7.5. The compounds were introduced to the fixed oocytes 20 minutes prior to ATP exposure in the electrophysiological chamber. IC50 values (the concentration of the compound required to inhibit the ATP response by 50%) were determined by Hill plots designed using the Chemical Formula: log(I/Imax−1), where I is the current evoked by ATP in the presence of an antagonist. Data are presented as mean±SEM (n≥3) from different batches of oocytes.
(§1) In order to investigate the structure-activity relationship (SAR) of the compounds synthesized in the present invention, the antagonistic activity was evaluated by a two-electrode voltage clamp (TEVC) assay in Xenopus oocytes expressing the recombinant mP2X1 or hP2X3, respectively. The hP2X7R antagonistic activity was assessed using an ethidium ion accumulation assay in human HEK293 cells stably expressing the recombinant human P2X7R.

[2] = biological target: T2, human P2X7 receptor (hP2X7) (Homo sapiens, UniProt Q99572); experiment: Ethidium bromide accumulation assay in hP2X7-expressing HEK293 cells; assay type: cell-based; settings: 10 μM compound with BzATP
T2 construct: expressed in transfected cells
T2 sequence (Q99572 1-595): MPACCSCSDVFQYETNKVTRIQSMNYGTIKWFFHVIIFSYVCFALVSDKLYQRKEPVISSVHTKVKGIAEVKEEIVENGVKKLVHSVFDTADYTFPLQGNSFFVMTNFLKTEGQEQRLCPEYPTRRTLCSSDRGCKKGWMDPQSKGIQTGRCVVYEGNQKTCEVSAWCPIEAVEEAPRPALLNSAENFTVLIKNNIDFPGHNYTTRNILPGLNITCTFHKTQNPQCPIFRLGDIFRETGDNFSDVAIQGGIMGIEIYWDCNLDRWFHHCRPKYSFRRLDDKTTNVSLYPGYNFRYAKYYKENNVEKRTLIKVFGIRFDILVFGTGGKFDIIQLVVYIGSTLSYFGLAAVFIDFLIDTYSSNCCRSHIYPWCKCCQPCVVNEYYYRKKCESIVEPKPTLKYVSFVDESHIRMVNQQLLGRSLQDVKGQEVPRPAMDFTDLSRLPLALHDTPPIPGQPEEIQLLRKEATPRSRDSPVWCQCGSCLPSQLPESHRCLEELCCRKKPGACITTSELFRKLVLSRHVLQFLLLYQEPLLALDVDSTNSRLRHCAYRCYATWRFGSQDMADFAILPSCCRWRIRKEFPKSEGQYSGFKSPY
Procedure: 1-2. Ethidium Bromide Accumulation Assay in hP2X-Expressing HEK293 Cells
HEK293 cells that are stably transfected with the human P2X7 receptor (P2X7R) were kept under a humidified atmosphere of 5% CO2 at 37° C. in DMEM supplemented with 10% (v/v) FBS, 2 mM L-glutamine and antibiotics (50 U/mL penicillin and 50 μg/ml streptomycin). BzATP-induced pore formation was measured using a fluorescence plate reader by measuring cellular absorption of ethidium in the hP2X7-expressing HEK293 cells. The hP2X7-expressing HEK293 cells were washed once with an appropriate assay buffer, and the buffer was also removed before subsequent analysis. All studies were performed at room temperature and the final assay volume was 100 μL. The cells were resuspended at 2.5×10^6 cells/mL in assay buffers consisting of 10 mM HEPES, 5 mM N-methyl-D-glucamine, 5.6 mM KCl, 10 mM D-glucose and 0.5 mM CaCl2 (pH 7.4) and supplemented with 280 mM sucrose or 140 mM NaCl.
In order to determine the antagonistic activity of the 5-hydroxyl-pyridine derivatives of the present invention and the reference compound (AZD9056), these compounds were added to the cells at a concentration of 10 μM with BzATP without pre-incubation. The cells were incubated for 2 hours under a humidified atmosphere of 5% CO2 at 37° C., and the absorption of ethidium dye was observed by measuring fluorescence with a Bio-Tek instrument FL600 fluorescent plate reader (excitation wavelength of 530 nm and emission wavelength of 590 nm). The results are expressed as a percentage relative to the maximum cumulative amount of ethidium bromide when stimulated with BzATP alone.
as §1

rats = experiment: Behavioral test (righting, placing-stepping, pinna and corneal reflexes); assay type: in vivo, rat; settings: maximum dose, intrathecal or intravenous administration
Procedure: 4-1. Behavioral Efficacy Test Method
Additional rats received the highest doses of drugs used to evaluate behavioral changes at 5, 10, 20, 30, 40, 50, and 60 min after intrathecal or intravenous administration to caudal vein. Motor functions were examined using the righting and placing-stepping reflexes. The righting reflex was evaluated by an immediate coordinated twisting of the body to an upright position when placing the rat horizontally with its back on the table. The placing-stepping reflex was induced by drawing the dorsum of hind paw across the edge of the table. Rats normally attempt to put their paws forward into a position for walking. Pinna and corneal reflexes were also assessed and judged as present or absent. Other abnormal behaviors, such as serpentine movement or tremors, were also evaluated.

[3] = Metabolic stability in microsomes, human; assay type: in vitro ADME; settings: 30 min

IC50 [1] | selectivity for hP2X3R to mP2X1R ([1]; hP2X3R versus mP2X1R) | hP2X7 % inhibition of ethidium bromide accumulation [2] | pinna and corneal reflexes (rats) | righting and position-stepping reflexes (rats) | Metabolic stability, microsomes, Human [3] | Structure (SMILES) | abnormal behavior changes (rats)
93 nM | about 100 fold | inactive |  |  |  | CCCc1nc(CCc2ccc(OC)cc2)c(C(=O)O)c(C(=O)O)c1O [Compound 13d, 5-Hydroxy-2-(4-methoxyphenethyl)-6-propylpyridine-3,4-dicarboxylic acid] | 
 |  |  | present | normal | 0 % remaining after 30 min | CCCc1nc(Cc2cccc(Oc3ccccc3)c2)c(C)c(C(=O)OC)c1O [Compound 28, Methyl 3-hydroxy-5-methyl-6-(3-phenoxybenzyl)-2-propylisonicotinate] | no obvious abnormal behavior changes were observed
245 nM |  | Inactive | present | normal | 3 % remaining after 30 min | CCCc1nc(Cc2cccc(Oc3ccccc3)c2)c(C)c(C(=O)O)c1O [Compound 29, 3-Hydroxy-5-methyl-6-(3-phenoxybenzyl)-2-propylisonicotinic acid] | no obvious abnormal behavior changes were observed
